Reference: EPA's ToxRefDB 2

Assays:
rat [1] = conditions: Subchronic oral toxicity in rodents, sprague dawley, Feed, dose end: 90 day, group: systemic
mouse [2] = conditions: Subchronic oral toxicity in rodents, other, Feed, dose end: 13 week, group: systemic
rat [3] = conditions: Prenatal developmental toxicity study, sprague dawley, Oral, Gavage/Intubation, dose end: 16 GD
rat [4] = conditions: Subchronic oral toxicity in rodents, sprague dawley, Feed, dose end: 13 week, group: systemic
dog [5] = conditions: Chronic toxicity; beagle; Oral; Feed; dose end: 52 week; group: systemic; systemic / organ weight / liver / absolute + systemic / organ weight / liver / relative to body weight + systemic / pathology gross / liver…
mouse [6] = conditions: Carcinogenicity; b6c3f1; Oral; Feed; dose end: 104 week; group: systemic; systemic / pathology microscopic / liver / cellular alteration + systemic / pathology microscopic / liver / fatty change + systemic / …
rabbit [7] = conditions: Prenatal developmental toxicity study, new zealand white, Oral, Gavage/Intubation, dose end: 18 GD
mouse [8] = conditions: Sub-acute repeat dose toxicity, other, Oral, Feed, dose end: 4 week, group: systemic
rat [9] = conditions: Combined chronic toxicity/carcinogenicity, sprague dawley, Oral, Feed, dose end: 104 week
rat [10] = conditions: Multigenerational reproductive toxicity study, sprague dawley, Oral, Feed, dose end: 2 generation
rabbit [11] = conditions: Prenatal developmental toxicity study, new zealand white, Oral, Gavage/Intubation, dose end: 19 GD
dog [12] = conditions: Chronic toxicity, beagle, Oral, Feed, dose end: 52 week, group: systemic
mouse [13] = conditions: Carcinogenicity; cd1; Oral; Feed; dose end: 18 month; group: systemic; systemic / organ weight / liver / absolute + systemic / organ weight / liver / relative to body weight + systemic / pathology microscopic / …
rat [14] = conditions: Subchronic oral toxicity in rodents, sprague dawley, Feed, dose end: 90 day, group: systemic, systemic / hematology / erythrocyte (rbc) count differential / erythrocyte (rbc) + systemic / hematology / hematocrit (hct) / hematocrit (…
rat [15] = conditions: Subchronic oral toxicity in rodents, sprague dawley, Feed, dose end: 90 day, group: systemic; remark: listed apart in the source
dog [16] = conditions: Subchronic oral toxicity in nonrodent, beagle, Feed, dose end: 13 week, group: systemic, systemic / clinical chemistry / alanine aminotransferase (alt/sgpt) / alanine aminotransferase (alt/sgpt) + systemic / clinical chemistry / …
rat [17] = conditions: Combined chronic toxicity/carcinogenicity; other; Oral; Feed; dose end: 22 month; group: systemic; systemic / hematology / erythrocyte (rbc) count differential / erythrocyte (rbc) + systemic / hematology / hematocrit (hct) / hematocrit (…
[18] = systemic / pathology microscopic / liver / hypertrophy
[19] = systemic / in life observation / body weight / body weight + systemic / in life observation / body weight / body weight gain + systemic / in…
[20] = group: developmental, developmental / developmental malformation / bone / cervical + systemic / in life observation / body weight / fetal weight
[21] = group: developmental, developmental / developmental malformation / bone / cervical + systemic / in life observation / body weight / fetal weight + developmental…
[22] = group: maternal, systemic / in life observation / body weight / body weight gain + systemic / in life observation / food consumption / food consumption + …
[23] = systemic / organ weight / liver / absolute
[24] = systemic / organ weight / liver / absolute + systemic / organ weight / kidney / absolute + systemic / organ weight / kidney / relative to …
[25] = group: developmental, developmental / developmental malformation / bone / full supernumerary
[26] = group: developmental, developmental / developmental malformation / bone / full supernumerary + systemic / in life observation / body weight / fetal weight
[27] = systemic / organ weight / liver / absolute + systemic / organ weight / liver / relative to body weight + systemic / pathology microscopic / …
[28] = group: cholinesterase, cholinesterase / cholinesterase / cholinesterase / erythrocyte cholinesterase (che) + cholinesterase / cholinesterase / cholinesterase / …
[29] = group: systemic, systemic / pathology microscopic / liver / eosinophilic focus
[30] = group: systemic, systemic / pathology microscopic / liver / eosinophilic focus + systemic / pathology microscopic / liver / hypertrophy
[31] = group: offspring, developmental / developmental malformation / trunk / [other] + developmental / developmental malformation / ureter / hydroureter + systemic…
[32] = group: parental, systemic / in life observation / body weight / body weight + systemic / organ weight / pituitary gland / relative to body weight + systemic…
[33] = group: parental, systemic / organ weight / pituitary gland / relative to body weight + systemic / in life observation / water consumption / water consumption…
[34] = group: developmental, systemic / in life observation / body weight / fetal weight
[35] = group: maternal, reproductive / reproductive performance / aborted / aborted + systemic / in life observation / clinical signs / body surface staining + …
[36] = systemic / in life observation / body weight / body weight + systemic / in life observation / body weight / body weight gain + systemic / …
[37] = systemic / clinical chemistry / aspartate aminotransferase (ast/sgot) / aspartate aminotransferase (ast/sgot)

With `CCCOCC(=Nc1ccc(Cl)cc1C(F)(F)F)n1ccnc1` [Triflumizole] the LEL (rat [1]; [18]) was 4.1 mg/kg/day, the NEL (rat [1]; [18]) was less than 4.1 mg/kg/day and the LOAEL (rat [1]; systemic / pathology microscopic / liver / hypertrophy + systemic / pathology microscopic / liver / vacuolization) was 40.9 mg/kg/day. For the same compound, the NOAEL (rat [1]; systemic / pathology microscopic / liver / hypertrophy + systemic / pathology microscopic / liver / vacuolization + systemic / hematology / …) was 4.1 mg/kg/day, the LOAEL (mouse [2]; systemic / in life observation / body weight / body weight + systemic / in life observation / body weight / body weight gain) was 381 mg/kg/day and the LEL (mouse [2]; [19]) was 381 mg/kg/day. For the same compound, the NEL (mouse [2]; [19]) was 33.1 mg/kg/day, the NOAEL (mouse [2]; [19]) was 33.1 mg/kg/day and the LEL (rat [3]; [20]) was 35 mg/kg/day. It also gave an LOAEL (rat [3]; [20]) of 35 mg/kg/day, an NEL (rat [3]; [21]) of 10 mg/kg/day and an NOAEL (rat [3]; [21]) of 10 mg/kg/day. The LEL (rat [3]; [22]) was 35 mg/kg/day, the LOAEL (rat [3]; [22]) was 35 mg/kg/day and the NEL (rat [3]; [22]) was 10 mg/kg/day. The NOAEL (rat [3]; [22]) was 10 mg/kg/day, the LEL (rat [4]; [23]) was 1.4 mg/kg/day and the NEL (rat [4]; [23]) was less than 1.4 mg/kg/day. The LOAEL (rat [4]; [24]) was 176 mg/kg/day, the NOAEL (rat [4]; [24]) was 15.3 mg/kg/day and the LEL (dog [5]) was 34.1 mg/kg/day. For the same compound, the LOAEL (dog [5]) was 34.1 mg/kg/day, the NEL (dog [5]) was 10 mg/kg/day and the NOAEL (dog [5]) was 10 mg/kg/day. For the same compound, the LEL (mouse [6]) was 67.4 mg/kg/day, the LOAEL (mouse [6]) was 67.4 mg/kg/day and the NEL (mouse [6]) was 16.2 mg/kg/day. For the same compound, the NOAEL (mouse [6]) was 16.2 mg/kg/day, the LEL (rabbit [7]; [25]) was 100 mg/kg/day and the LOAEL (rabbit [7]; [25]) was 100 mg/kg/day. For the same compound, the NEL (rabbit [7]; [26]) was 50 mg/kg/day, the NOAEL (rabbit [7]; [26]) was 50 mg/kg/day and the LEL (rabbit [7]; [22]) was 100 mg/kg/day. For the same compound, the LOAEL (rabbit [7]; [22]) was 100 mg/kg/day, the NEL (rabbit [7]; [22]) was 50 mg/kg/day and the NOAEL (rabbit [7]; [22]) was 50 mg/kg/day. It also gave an LOAEL (mouse [8]; [27]) of 397 mg/kg/day, an NEL (mouse [8]; [27]) of 3.8 mg/kg/day and an NOAEL (mouse [8]; [27]) of 40.3 mg/kg/day. The LEL (mouse [8]; systemic / organ weight / liver / relative to body weight + systemic / urinalysis / glucose / glucose) was 40.3 mg/kg/day, the LEL (rat [9]; [28]) was 14.4 mg/kg/day and the LOAEL (rat [9]; [28]) was greater than 59.4 mg/kg/day. It also gave an NEL (rat [9]; [28]) of 3.5 mg/kg/day, an NOAEL (rat [9]; [28]) of no less than 59.4 mg/kg/day and an LOAEL (rat [9]; [29]) of 3.5 mg/kg/day. It also gave an NOAEL (rat [9]; [29]) of less than 3.5 mg/kg/day, an LEL (rat [9]; [30]) of 3.5 mg/kg/day and an NEL (rat [9]; [30]) of less than 3.5 mg/kg/day. For the same compound, the LOAEL (rat [10]; group: offspring, developmental / developmental malformation / trunk / [other] + developmental / developmental malformation / ureter / hydroureter) was 8.5 mg/kg/day, the LEL (rat [10]; [31]) was 8.5 mg/kg/day and the NEL (rat [10]; [31]) was 3.5 mg/kg/day. The NOAEL (rat [10]; [31]) was 3.5 mg/kg/day, the LOAEL (rat [10]; [32]) was greater than 8.5 mg/kg/day and the NOAEL (rat [10]; [32]) was no less than 8.5 mg/kg/day. The LEL (rat [10]; [33]) was 1.5 mg/kg/day, the NEL (rat [10]; [33]) was less than 1.5 mg/kg/day and the NOAEL (rat [10]; group: reproductive, reproductive / reproductive performance / gestational length / gestational length) was 3.5 mg/kg/day. It also gave an LOAEL (rat [10]; group: reproductive, reproductive / reproductive performance / gestational length / gestational length + reproductive / offspring survival early / litter size / …) of 8.5 mg/kg/day, an NEL (rat [10]; group: reproductive, reproductive / reproductive performance / gestational length / gestational length + reproductive / reproductive performance / mating / …) of 1.5 mg/kg/day and an LEL (rat [10]; group: reproductive, reproductive / reproductive performance / mating / mating) of 3.5 mg/kg/day.
For `COC(=O)c1cccc(C)c1S(=O)(=O)NC(=O)Nc1nc(OCC(F)(F)F)nc(N(C)C)n1` [Triflusulfuron-methyl], the LEL (rabbit [11]; [34]) was 270 mg/kg/day, the LOAEL (rabbit [11]; [34]) was 270 mg/kg/day and the NEL (rabbit [11]; [34]) was 90 mg/kg/day. It also gave an NOAEL (rabbit [11]; [34]) of 90 mg/kg/day, an LEL (rabbit [11]; [35]) of 270 mg/kg/day and an LOAEL (rabbit [11]; [35]) of 270 mg/kg/day. The NEL (rabbit [11]; [35]) was 90 mg/kg/day, the NOAEL (rabbit [11]; [35]) was 90 mg/kg/day and the LEL (dog [12]; [36]) was 26.9 mg/kg/day. For the same compound, the NEL (dog [12]; [36]) was 1 mg/kg/day, the LOAEL (dog [12]; systemic / organ weight / liver / relative to body weight + systemic / pathology microscopic / liver / hypertrophy) was 95.5 mg/kg/day and the NOAEL (dog [12]; systemic / organ weight / liver / relative to body weight + systemic / pathology microscopic / liver / hypertrophy + systemic / clinical …) was 27.7 mg/kg/day. For the same compound, the LEL (mouse [13]) was 349 mg/kg/day, the LOAEL (mouse [13]) was 349 mg/kg/day and the NEL (mouse [13]) was 20.9 mg/kg/day. For the same compound, the NOAEL (mouse [13]) was 20.9 mg/kg/day, the LEL (rat [14]) was 127 mg/kg/day and the LOAEL (rat [14]) was 127 mg/kg/day. It also gave an NEL (rat [14]) of 6.2 mg/kg/day, an NOAEL (rat [14]) of 6.2 mg/kg/day and an LEL (rat [15]; [37]) of 7.71 mg/kg/day. The NEL (rat [15]; [37]) was less than 7.71 mg/kg/day, the LOAEL (rat [15]; systemic / in life observation / body weight / body weight gain + systemic / in life observation / food consumption / food efficiency) was 133 mg/kg/day and the NOAEL (rat [15]; systemic / in life observation / body weight / body weight gain + systemic / in life observation / food consumption / food efficiency + …) was 6.56 mg/kg/day. It also gave an LEL (dog [16]) of 147 mg/kg/day, an LOAEL (dog [16]) of 147 mg/kg/day and an NEL (dog [16]) of 3.9 mg/kg/day. It also gave an NOAEL (dog [16]) of 3.9 mg/kg/day, an LEL (rat [17]) of 30.6 mg/kg/day and an LOAEL (rat [17]) of 30.6 mg/kg/day. It also gave an NEL (rat [17]) of 4.06 mg/kg/day and an NOAEL (rat [17]) of 4.06 mg/kg/day.
